In brackets after ≈: the same amount, converted by molar mass.
Conditions: buffer; pH 7.4; 200.0 µM

| Compound | solubility kinetic |
| --- | --- |
| CN1C(=O)C(O)(CC(=O)/C=C/c2ccco2)c2ccccc21 (stereo unspecified) | > 44.6 µg/mL |
| O=C(Nc1ccon1)Nc1cccc(Cl)c1Cl | 1.9 µg/mL (≈ 6.98 µM) |
| COc1cc2[nH]c(=S)n(Cc3cccs3)c(=O)c2cc1OC | < 0.4 µg/mL |
| CC(C)[C@H](NC(N)=O)C(=O)Nc1ccc(OCc2ccccc2)cc1 | 3 µg/mL (≈ 8.79 µM) |
| Cc1ccc(CNC(=O)/C=C/C(=O)O)cc1 | > 32.9 µg/mL |
| Cc1ccnc(SC2CC(=O)N(c3ccc(Br)cc3)C2=O)n1 (stereo unspecified) | 44.1 µg/mL (≈ 117 µM) |
| COc1cc(CNCCO)ccc1OCCc1ccccc1 | > 45.2 µg/mL |
| Cc1ccc(C)c(NC(=S)NCCc2cnc[nH]2)c1 | 36.8 µg/mL (≈ 134 µM) |
| S=C(Nc1ccccc1)Nc1ccccc1-n1cccc1 | 34.2 µg/mL (≈ 117 µM) |
| O=C(c1ccc(Br)cc1)N1CCN(Cc2ccccc2)CC1 | 38.9 µg/mL (≈ 108 µM) |
| CS(=O)(=O)c1cccc(C(=O)OCC(=O)NC(=O)Nc2ccccc2F)c1 | 5.2 µg/mL (≈ 13.2 µM) |
| CC(=O)Nc1ccc(S(=O)(=O)NCC(=O)OCC(=O)c2ccc[nH]2)cc1 | > 56.9 µg/mL |
| Cc1cc(NC(=O)c2ccc([N+](=O)[O-])cc2Cl)no1 | 16.3 µg/mL (≈ 57.9 µM) |
| O=C1CN(c2ccccc2)C(=O)N1 | > 26.4 µg/mL |
| O=C(CCC(=O)c1cccs1)NCc1cccnc1 | > 41.2 µg/mL |
| O=C(CSc1nncs1)NC(=O)NC1CCCC1 | > 43 µg/mL |
| CC[C@H](CO)NCCN[C@H](CC)CO.Cl | > 41.6 µg/mL |
| CN1C(=O)C(=O)/C(=C(/O)c2ccccc2)C1c1ccc([N+](=O)[O-])cc1 (stereo unspecified) | > 50.7 µg/mL |
| CCOc1ccc(C(CC(=O)O)NC(=O)C(CC)c2ccccc2)cc1 (stereo unspecified) | 47.9 µg/mL (≈ 135 µM) |
| Br.N=C(N)SCCc1cccc(CCSC(=N)N)c1 | > 66.6 µg/mL |
| O=c1cnc2ccccc2n1Cc1ccc(Br)cc1 | 2.7 µg/mL (≈ 8.57 µM) |
| CC(C)CN1C(=O)N(c2ccc(Cl)cc2)C(C)(O)CC1(C)C (stereo unspecified) | 4.1 µg/mL (≈ 12.6 µM) |
| O=C(Nc1ccc(N2CCN(c3ccccc3)CC2)c(F)c1)C1CC1 | < 0.2 µg/mL |
| CC1CC(C)CN(c2ncnc3c2cnn3C)C1 (stereo unspecified) | > 36.8 µg/mL |
| CCC(CC)C(=O)c1c[nH]c(C(=O)NCc2ccccc2OC)c1 | 0.8 µg/mL (≈ 2.44 µM) |

| Compound | solubility kinetic |
| --- | --- |
| Cc1cccc(C)c1NC(=O)COC(=O)/C=C/c1ccc(S(=O)(=O)N2CCOCC2)cc1 | 2.2 µg/mL (≈ 4.8 µM) |
| CCCCCOc1ccc(NC2=CC(=O)CCC2)cc1 | > 41 µg/mL |
| CN(c1ccccc1)S(=O)(=O)c1ccc(Cl)nc1 | 40.1 µg/mL (≈ 142 µM) |
| CC(=O)Nc1ccc(NC(=O)CC23CC4CC(CC(C4)C2)C3)cc1 | 21.3 µg/mL (≈ 65.2 µM) |
| Cc1ccc(-c2nc3ccccc3nc2-c2ccccc2)cc1 | 1 µg/mL (≈ 3.37 µM) |
| CCN(CC(=O)Nc1ccc(C(=O)OC)cc1)C1CCCCC1 | 43.3 µg/mL (≈ 136 µM) |
| NS(=O)(=O)c1ccc(NC(=S)N2CCc3ccccc32)cc1 | 2.1 µg/mL (≈ 6.3 µM) |
| O=C(CC(=O)Nc1ccccc1F)Nc1ccccc1F | > 43.5 µg/mL |
| N#CCSc1nc2ccccc2o1 | 14.3 µg/mL (≈ 75.2 µM) |
| CN(CC(=O)NC(=O)Nc1ccccc1F)Cc1ccccc1 | 4.7 µg/mL (≈ 14.9 µM) |
| N#Cc1ccc(OCC(O)CS(=O)(=O)c2ccc(F)cc2)cc1 (stereo unspecified) | > 50.3 µg/mL |
| COc1ccc(CCC(=O)Nc2ccc3c(c2)OCO3)cc1 | 7.3 µg/mL (≈ 24.4 µM) |
| Cc1ccc(NC(=O)CN2C(=O)c3ccccc3C2=O)cc1 | 2 µg/mL (≈ 6.8 µM) |
| Cl.NCCS | > 17 µg/mL |
| CCCC(=O)Oc1ccc(C2NC(=O)c3ccccc3O2)cc1OC (stereo unspecified) | 3.9 µg/mL (≈ 11.4 µM) |
| O=C(Oc1ccc(C(=S)N2CCOCC2)cc1)c1cccc([N+](=O)[O-])c1 | < 0.4 µg/mL |
| Cc1ccc(S(=O)(=O)N(C)CC(=O)OCC(=O)NCCc2ccc(S(N)(=O)=O)cc2)cc1 | > 72.5 µg/mL |
| CN1C(=O)N(C)c2cccc3cccc1c23 | 0.8 µg/mL (≈ 3.77 µM) |
| COC(=O)CC(c1ccccc1F)N1Cc2ccccc2C1=O (stereo unspecified) | > 47 µg/mL |
| COC(=O)c1ccc(S(=O)(=O)NC(C)(C)C)n1C | 40.2 µg/mL (≈ 147 µM) |
| CCOc1ccc(NC(=S)Nc2cccc3cnccc23)cc1 | 24.6 µg/mL (≈ 76.1 µM) |
| Cc1nc(-c2ccc(S(=O)(=O)N3CCOCC3)cc2)cs1 | 20.7 µg/mL (≈ 63.8 µM) |
| CCOC(=O)C1CCN(c2c(NCCC(C)C)c(=O)c2=O)CC1 | > 48.4 µg/mL |
| CC(=O)NCCC(=O)Nc1nc(-c2ccc3c(c2)OCCO3)cs1 | 13.6 µg/mL (≈ 39.1 µM) |
| CC(NC(=O)c1ccccc1N)c1ccccc1 (stereo unspecified) | > 36 µg/mL |

| Compound | solubility kinetic |
| --- | --- |
| O=C(O)c1ccc(S(=O)(=O)N2CCOCC2)o1 | 33.9 µg/mL (≈ 130 µM) |
| Cn1c(=O)c2c(nc(SCc3ccccc3F)n2C)n(C)c1=O | 6.2 µg/mL (≈ 18.5 µM) |
| Cl.NCc1ccccc1 | > 21.5 µg/mL |
| O=C1C(Cl)=CC(=Nc2ccc([O-])cc2)C=C1Cl.[Na+] | > 43.5 µg/mL |
| CC(=O)Nc1ccc(NC(=O)c2ccc(Cl)nc2)cc1 | > 43.5 µg/mL |
| Cc1nccn1CCC(=O)Nc1ccc(Cl)cc1 | > 39.6 µg/mL |
| CCOc1ccc(NC(=O)C2C3CC/C=C\CCC32)cc1 (stereo unspecified) | < 0.6 µg/mL |
| O=C(OCC(=O)N1CCc2ccccc21)[C@@H]1CC(O)CN1S(=O)(=O)c1ccc(Cl)cc1 (stereo partly specified) | 50.4 µg/mL (≈ 108 µM) |
| CC(=O)O/N=C/c1c(C)c(C=O)n2ccccc12 | > 36.6 µg/mL |
| Cc1cc(NC(=O)COC(=O)c2ccc(C)c(C)c2)no1 | 3.7 µg/mL (≈ 12.8 µM) |
| COc1ccc(NC(=O)CC(=O)Nc2ccc(OC)cc2)cc1 | 1.2 µg/mL (≈ 3.82 µM) |
| Cl.O=c1cn[nH]c2ccccc12 | > 27.4 µg/mL |
| O=C(NC1CCSc2ccccc21)c1ccccc1Cl (stereo unspecified) | 9.3 µg/mL (≈ 30.6 µM) |
| O=C(NCCCN1CCCC1=O)c1ccccc1OCc1ccc(Cl)cc1Cl | 54.7 µg/mL (≈ 130 µM) |
| S=C(Nc1ccc(Cl)c(Cl)c1)N1CCN(c2ccccn2)CC1 | 0.9 µg/mL (≈ 2.45 µM) |
| Cc1cc(Nc2ccccc2)cc(=O)n1C | 30.9 µg/mL (≈ 144 µM) |
| CCOC(=O)c1sc(NC(=O)c2c(CC)noc2C)nc1C | > 48.5 µg/mL |
| C=CCOc1ccc(C2NC(=O)c3ccccc3O2)cc1OCC (stereo unspecified) | 2.6 µg/mL (≈ 7.99 µM) |
| O=c1[nH]c(=O)n(-c2ccc(Br)cc2)c(O)c1C=NCCN1CCCCC1 | 60.5 µg/mL (≈ 144 µM) |
| COc1ccc(C(=O)N2CCN(c3ccccn3)CC2)cc1[N+](=O)[O-] | 49.5 µg/mL (≈ 145 µM) |
| O=C(NCC1CCCO1)c1cc(C(=O)C2CCCCC2)c[nH]1 (stereo unspecified) | > 45.7 µg/mL |
| COc1cccc(C(C)NC(=O)c2ccncc2)c1 (stereo unspecified) | > 38.4 µg/mL |
| NCCCS(=O)(=O)O.O.[Na+] | 2.9 µg/mL |
| CCOc1ccccc1NC(=S)NC(=O)C1CCCCC1 | 0.6 µg/mL (≈ 1.96 µM) |
| O=C1CSC(=Nc2ccc(Cl)cc2)N1 | 33.7 µg/mL (≈ 149 µM) |

| Compound | solubility kinetic |
| --- | --- |
| CN(C(=O)COc1ccc(Cl)cc1)C1(C)CCS(=O)(=O)C1 (stereo unspecified) | > 49.8 µg/mL |
| CC(C)(CNS(=O)(=O)c1cccs1)N1CCOCC1 | > 45.7 µg/mL |
| CCc1cc(C(=O)O)c(NC(=O)/C=C/c2ccc(OC)cc2)s1 | > 49.7 µg/mL |
| COc1ccccc1NC(=O)c1ccccc1NC(=O)c1cccs1 | < 0.4 µg/mL |
| CC(C)c1ccc(S(=O)(=O)NC2CCS(=O)(=O)C2)cc1 (stereo unspecified) | > 47.6 µg/mL |
| Cc1ccc(Cn2c(=O)oc3ccccc32)cc1 | 1 µg/mL (≈ 4.18 µM) |
| CC(=O)N(C)c1ccc(NC(=S)NCC(C)C)cc1 | > 41.9 µg/mL |
| CC(=O)O[C@H](CC(=O)O)C[N+](C)(C)C.[Cl-] | > 36 µg/mL |
| CC(=O)Nc1c(-c2ccc(Cl)cc2)c(=O)c2ccccc2n1C | 14.8 µg/mL (≈ 45.3 µM) |
| N#Cc1c(-c2cccc([N+](=O)[O-])c2)nc2n(c1=O)CCS2 | > 45 µg/mL |
| Cc1ccccc1C(=O)Nc1ccc(N2CCCC2)cc1.Cl | 7.8 µg/mL |
| NC(=S)Nc1ccc(Cl)c(Cl)c1 | > 33.2 µg/mL |
| O=C(COC(=O)Cc1ccsc1)Nc1cccc(F)c1 | > 44 µg/mL |
| O=C(COc1ccccc1)N1CCCC1 | 26.7 µg/mL (≈ 130 µM) |
| O=c1c(-c2ccccc2)cnc2n1CCS2 | > 34.5 µg/mL |
| CCOc1ccc(Br)cc1CN(CC)CC.Cl | > 48.4 µg/mL |
| COc1cc(NC(=O)CCN2CC(C)OC(C)C2)cc(OC)c1 (stereo unspecified) | 34.3 µg/mL (≈ 106 µM) |
| CC(C)(C)C(=O)Nc1ccc(NC(=O)c2ccco2)nc1 | > 43.1 µg/mL |
| O=C1CCN2C=Nc3cccc4ccc1c2c34 | 33.2 µg/mL (≈ 149 µM) |
| Cc1[nH]c2ccccc2c1SCC(=O)NC1CCCCC1 | > 45.4 µg/mL |
| O=c1[nH]c(=S)n(C2CC2)c(O)c1C=NCc1ccc(F)cc1 | 0.9 µg/mL (≈ 2.82 µM) |
| COC(=O)c1ccc(CN2CCc3ccccc32)cc1 | 1 µg/mL (≈ 3.74 µM) |
| Cc1ccc(NC(=O)C(C)OC(=O)CSc2ccccc2)cc1 (stereo unspecified) | > 49.4 µg/mL |
| COc1ccccc1CNC(=O)COC(=O)c1ccncc1 | > 45 µg/mL |
| O=C(Cc1ccccc1[N+](=O)[O-])OCN1C(=O)c2ccccc2C1=O | 13.7 µg/mL (≈ 40.3 µM) |

| Compound | solubility kinetic |
| --- | --- |
| O=c1[nH]cnc2sc3c(c12)CCC3 | > 28.8 µg/mL |
| Cc1ccc(N2CC(=O)Nc3c(sc4nc(C)cc(C)c34)C2=O)cc1 | 0.6 µg/mL (≈ 1.71 µM) |
| COn1c(=O)c(-c2cccc(Br)c2)[n+]([O-])c2ccccc21 | 4.9 µg/mL (≈ 14.1 µM) |
| CCNC(=O)C(C)Oc1ccc(Cl)cc1Cl (stereo unspecified) | > 39.3 µg/mL |
| CCOC(=O)CC(c1ccc([N+](=O)[O-])cc1)n1c(C)ccc1C (stereo unspecified) | 32.9 µg/mL (≈ 104 µM) |
| CCC(CC)C(=O)Nc1ccc(S(=O)(=O)Nc2nccs2)cc1 | > 53 µg/mL |
| COc1ccc(C(CNC(=O)CN(C)S(=O)(=O)c2ccc(C)cc2)N2CCCC2)cc1 (stereo unspecified) | > 66.8 µg/mL |
| Fc1cc(Br)cc(F)c1NC(=S)N1CCOCC1 | 33.8 µg/mL (≈ 100 µM) |
| NC(=O)C1(N2CCCCC2)CCN(Cc2nc(-c3cccs3)no2)CC1 | > 56.3 µg/mL |
| COCc1ccc(CN2CCC(CO)(CC3CCCCO3)CC2)o1 (stereo unspecified) | > 50.6 µg/mL |
| CN(c1ccc(OCC(=O)OCC(=O)Nc2ccc(OC(F)F)cc2)cc1)S(=O)(=O)c1cccs1 | 19.1 µg/mL (≈ 36.3 µM) |
| O=C(NC(=S)Nc1ccc(Br)cc1)C1CCC1 | 2.6 µg/mL (≈ 8.3 µM) |
| O=[N+]([O-])c1cc(S(=O)(=O)NC2=NCCCCC2)ccc1Cl | 39 µg/mL (≈ 118 µM) |
| Cc1c(Cl)cnc(NC(=O)COC(=O)C2CC2)c1Cl | > 45.5 µg/mL |
| CCOC(=O)C1CCN(C(=O)c2ccc(OC3CCN(C(=O)COC)CC3)cc2)CC1 | 45 µg/mL (≈ 104 µM) |
| O=C1C2C3c4ccccc4C(c4ccccc43)[C@@H]2C(=O)N1c1ccccn1 (stereo partly specified) | 2.9 µg/mL (≈ 8.23 µM) |
| COc1ccc(Cl)cc1C(=O)NCc1ccc2c(c1)OCO2 | 34.3 µg/mL (≈ 107 µM) |
| Cc1ccc(NC(=S)NCCc2ccccc2)nc1 | < 0.2 µg/mL |
| Nc1nc(NCc2ccco2)nc(NCCO)c1[N+](=O)[O-] | > 44.1 µg/mL |
| Cn1c(NNC(=O)c2c(F)cccc2F)cc(=O)n(C)c1=O | > 46.5 µg/mL |
| Cc1ccccc1C(=O)NC1CCN(CC(=O)N2CCCCC2C)CC1 (stereo unspecified) | > 53.6 µg/mL |

Source: PubChem BioAssay AID1996
